The text below walks through data of paper PMC9051980 (Saudi Pharmaceutical Journal : SPJ, 2022).

SMILES strings stand for the structures.

For data set [1], the system named is PTSD mice. Kind of data set: Open field test. The data set is classed as in vivo, C57 mice.
In data set [2] the test system is amygdala dopamine transporter (DAT). Put plainly: Immunohistochemistry of amygdala DAT. The data set is classed as in vivo, C57 mice. The conditions noted are these: Day 19, compared with Healthy group.
The test system of data set [3] is PTSD mice. Put plainly: Freezing response test in fear-conditioning box. The data set is classed as in vivo, C57 mice.
For a further data set, the system named is plasma CORT. Kind of data set: Plasma CORT level. In kind it is in vivo, C57 mice. Conditions: Day 19, compared with Healthy group.
Data set [4] deals with cilia of the maxillary mucosa of toads. Kind of data set: Mucosal irritation. Also on record: species or system toad.
The nature of the next data set: In-vitro drug release. The data set is classed as physicochemical. The conditions noted are these: 34 °C, 200 rpm, artificial nasal fluid.
The nature of data set [5]: In-vivo tissue distribution evaluation. The conditions noted are these: both, C57BL/6N, mouse, po, 0.4 mg/mouse.
Data set [6] in a line: Plasma pharmacokinetic evaluation. In kind it is in vivo, C57BL/6N mice. The conditions noted are these: both, C57BL/6N, mouse, po, 0.4 mg/mouse.
The nature of the next data set: Nasal perfusion method. The data set is classed as in vivo, C57 mouse. The conditions noted are these: at 60 min; 20 mL artificial nasal solution, 1 mg/mL, total dose 20 mg.
The mark [7] stands for this setting: Day 12, compared with Model group.
Where [8] appears, read: Day 17, five days after drug withdrawal, compared with Healthy group.
[9] abbreviates: Day 17, five days after drug withdrawal, compared with Model group.

In the case of `CN[C@H]1CC[C@@H](c2ccc(Cl)c(Cl)c2)c2ccccc21` [Sertraline], the “Open field test indicators” value in the data set on PTSD mice [1] (Day 12, compared with Healthy group) is “fewer crossing times”. Besides, in the data set on PTSD mice [1] (setting [7]), the “Active distances in the center of thigmotaxis area” value is listed as “more active distances in the center of thigmotaxis area”. Besides, the “Crossings in the center of thigmotaxis area” value in the data set on PTSD mice [1] (setting [7]) is reported as “more crossings in the center of thigmotaxis area”. For the same compound, the Total active distances result was “more total active distances” in the data set on PTSD mice [1] (Day 12, open field, compared with Model group); “fewer total active distances” in the data set on PTSD mice [1] (Day 18, open field, after drug withdrawal, compared with Healthy group); “increased” in the data set with PTSD mice [1] (Day 18, open field, after drug withdrawal, compared with Model group); “shorter total active distances” in the data set with PTSD mice [3] (Day 11, fear-conditioning box, compared with Healthy group); “longer total active distances” in the data set on PTSD mice [3] (Day 11, fear-conditioning box, compared with Model group); “shorter total active distances” in the data set on PTSD mice [3] (setting [8]). Moreover, in the data set on PTSD mice [3] (setting [9]), the Total active distances entry is listed as “longer total active distances”. Moreover, in the data set with PTSD mice [1] (Day 18, after drug withdrawal, compared with Healthy group), the “Crossings and active distances in the center of thigmotaxis area” value was “fewer crossings and active distances in the center of thigmotaxis area”. Moreover, in the data set on PTSD mice [1] (Day 18, after drug withdrawal, compared with Model group), the “Crossing of the center of thigmotaxis area” value is on record as “more frequently”. Moreover, the “DAT expression in amygdala (IOD)” value in data set [2] was “significantly increased”. The Freezing time entry in the data set with PTSD mice [3] (Day 11, compared with Healthy group) is “longer freezing time”; with PTSD mice [3] (setting [8]), “longer freezing time”; with PTSD mice [3] (setting [9]) it was “shorter freezing time”. In addition, in the data set on plasma CORT, the “Plasma CORT level” value is recorded as “decreased”.

As for `C[C@H](CCC(=O)O)[C@H]1CC[C@H]2[C@@H]3CC[C@@H]4C[C@H](O)CC[C@]4(C)[C@H]3C[C@H](O)[C@]12C` [Sodium Deoxycholate], the “PVD (persistent vibration duration of cilia)” value in data set [4] (100 μL on toad upper-jaw mucosa, armodafinil 20 mg/mL, sodium deoxycholate 1%) is 136.67 ± 26.95 min. Further, in data set [4] (PVD compared with that of the saline group), the “PPV (percentage of persistent vibration)” value is given as 20.69%. For the same compound, the “Ciliary structure / extent of damage of cilia under microscope” value in [4] (maxillary mucosa of toads) is on record as “obviously prostrate or even exfoliated”.

Consider `NC(=O)C[S@@+]([O-])C(c1ccccc1)c1ccccc1` [Armodafinil], for which, in the data set “In-vitro drug release”, the “Time at which the release was complete” value came to 2 h. Moreover, in the data set “In-vitro drug release” (20 mg/mL armodafinil), the “Released armodafinil percentage when release was complete” value is reported as 18.12 ± 1.03%. Moreover, in data set [5] (brain), the area under the curve AUC(0-t) worked out at 1090 ng·h/mL, the maximum concentration (Cmax) stood at 259 ± 96 ng/mL and the Tmax worked out at 30 min. Besides, in [5] (liver), the AUC(0-t) was determined as 2380 ng·h/mL, the peak level (Cmax) was 1150 ± 199 ng/mL and the time of peak concentration (Tmax) worked out at 30 min. Moreover, in [6], the exposure AUC(0-t) came to 9900 ± 5500 ng·h/mL, the peak level (Cmax) was 3600 ± 2250 ng/mL and the time to peak (Tmax) is 15 min. In addition, the “Mucosal absorptive amount of armodafinil” value in “Nasal perfusion method” is recorded as 2.50 mg.

Usually AUC(0-t) stands for the area under the concentration-time curve up to a stated or last time point. A lower AUC(0-t) goes with low exposure. As a reminder, the Cmax is the maximum level reached in the sampled fluid or tissue. A word on the Tmax: it is the time from dosing to the highest level.
